We go through 10 compounds from patent US20250312309A1, “ALLYL-AND PROPARGYLAMINE-TYPE PHENE[…] T[…] TREATING MEDICAL DISORDERS” (Mind Medicine, Inc., priority 2023, published 2025).

Assay [1] deals with T1, human serotonin (5-HT) transporter (hSERT) (Homo sapiens, UniProt P31645).
T1 construct: expressed in transfected cells; host or cells: HEK 293 cells (Invitrogen), stably transfected
As to the kind of experiment: Serotonin uptake transport inhibition ([3H]5-HT uptake in hSERT-transfected HEK 293 cells). To be noted: screening at 1 μM and 10 μM (n=3), FIG. 9. The class given is cell-based.
Method: Serotonin uptake transport inhibition. […] Briefly, cells were cultured in Dulbecco's modified Eagle's medium (DMEM; Gibco, Life Technologies, Zug, Switzerland) with 10% fetal bovine serum (Gibco) and 250 mg/mL Geneticin (Gibco) to 70-90% confluence, detached, and then resuspended (3×10^6 cells/mL) in Krebs-Ringer Bicarbonate Buffer (Sigma-Aldrich, Buchs, Switzerland). The cell suspension (100 μL) was incubated with 25 μL buffer containing the test compounds, vehicle control, or 10 μM fluoxetine (SERT-specific inhibitor) for 10 minutes in a round bottom 96-well plate at room temperature by shaking at 450 rotations per minute on a rotary shaker. To initiate uptake transport, 50 μL of [^3H] […] Thereafter, 100 μL of the cell suspension was transferred into 500 μL microcentrifuge tubes that contained 50 μL of 3 M KOH and 200 μL silicon oil (1:1 mixture of silicon oil types AR 20 and AR 200; Sigma-Aldrich). The tubes were centrifuged for 3 minutes at 16,550 g to transport the cells through the silicone oil into the KOH. The tubes were frozen in liquid nitrogen and the cell pellet was then cut into 6 mL scintillation vials (PerkinElmer, Schwerzenbach, Switzerland) that contained 0.5 mL lysis buffer (0.05 M TRIS-HCl, 50 mM NaCl, 5 mM EDTA, and 1% NP-40 in water). The samples were shaken for 1 hour before the addition of 5 mL scintillation liquid (Ultimagold, Perkin Elmer). Serotonin uptake was quantified by liquid scintillation counting on a Packard Tri-Carb Liquid Scintillation Counter 1900 TR. Non-specific uptake in the presence of fluoxetine was subtracted from the total counts.

The target of the next assay is T2, human 5-HT2A receptor (Homo sapiens, UniProt P28223).
T2 construct: expressed in transfected cells; host or cells: NIH/3T3 cells stably expressing the receptor
As to the kind of experiment: 5-HT2A receptor activation assessment (IP1 accumulation, NIH/3T3 cells). The assay is classed as cell-based. The conditions noted are these: for 5-HT2A receptor activation, result in words: FIG. 10 / FIG. 11.

For assay [2] the following is noted: humans; Trachsel et al., 2013; cited from earlier work.
For assay [3], the target named is T1, human serotonin (5-HT) transporter (hSERT). To be noted: read-out: IC50, SERT inhibition (Simmler et al., 2013); literature value in this assay; cited from earlier work.
The mark [4] stands for this setting: NIH/3T3 cells expressing human 5-HT2A, FIG. 11, read-out: EC50, 5-HT2A receptor activation (IP1 formation).
Where [5] appears, read: values for hydrochloride salts, read-out: IC50 values at the 5-HT2A receptor.

Entries after “also recorded” stand apart in the source; their conditions may differ. Where a name gives a salt, the structure may show the parent alone. Read-outs that look alike come from different tables or passages of the source.

T1 sequence (P31645 whole entry): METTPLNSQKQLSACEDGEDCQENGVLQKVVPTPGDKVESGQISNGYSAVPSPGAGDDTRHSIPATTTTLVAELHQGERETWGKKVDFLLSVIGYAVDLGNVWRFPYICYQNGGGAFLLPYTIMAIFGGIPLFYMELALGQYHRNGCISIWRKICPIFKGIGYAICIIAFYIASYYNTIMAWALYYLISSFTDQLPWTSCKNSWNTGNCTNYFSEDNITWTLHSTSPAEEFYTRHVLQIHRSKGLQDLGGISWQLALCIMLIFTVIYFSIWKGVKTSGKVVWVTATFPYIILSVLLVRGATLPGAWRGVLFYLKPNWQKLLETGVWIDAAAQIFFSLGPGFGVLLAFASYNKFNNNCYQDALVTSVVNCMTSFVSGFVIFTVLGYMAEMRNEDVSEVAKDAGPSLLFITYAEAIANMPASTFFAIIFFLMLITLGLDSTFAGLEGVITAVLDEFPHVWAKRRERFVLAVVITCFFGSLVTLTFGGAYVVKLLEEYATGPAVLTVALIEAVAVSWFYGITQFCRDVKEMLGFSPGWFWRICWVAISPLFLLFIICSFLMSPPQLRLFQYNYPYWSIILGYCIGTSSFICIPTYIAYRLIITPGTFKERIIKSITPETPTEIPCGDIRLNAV
T2 sequence (P28223 whole entry): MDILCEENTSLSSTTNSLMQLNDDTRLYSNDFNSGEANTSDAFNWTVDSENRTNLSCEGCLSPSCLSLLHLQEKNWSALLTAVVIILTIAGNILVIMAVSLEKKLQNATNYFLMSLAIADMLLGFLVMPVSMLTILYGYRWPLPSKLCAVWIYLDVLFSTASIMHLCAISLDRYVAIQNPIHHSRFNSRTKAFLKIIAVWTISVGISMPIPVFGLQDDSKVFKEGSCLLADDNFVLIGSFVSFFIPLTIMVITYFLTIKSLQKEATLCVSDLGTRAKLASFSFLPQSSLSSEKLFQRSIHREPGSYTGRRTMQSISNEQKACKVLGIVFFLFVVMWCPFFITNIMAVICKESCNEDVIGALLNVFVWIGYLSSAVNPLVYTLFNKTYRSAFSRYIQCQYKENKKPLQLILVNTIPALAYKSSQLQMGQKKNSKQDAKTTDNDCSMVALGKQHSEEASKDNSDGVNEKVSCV
Method for human 5-HT2A receptor: 5-HT2A receptor activation assessment. Activation of the 5-HT2A receptor was assessed by measuring the accumulation of inositol monophosphate 1 (IP1) using the Cisbio IP-One Gq Kit (Cisbio Bioassays SAS, Codolet Cedex, France) according to the manufacturer's protocol. In brief, NIH/3T3 cells stably expressing the human 5-HT2A receptor were seeded at a density of 2,500 cells per well in a 384-well plate in Opti-MEM™ I medium (Gibco, ThermoFisher, Life Technologies Europe B.V., Zug, Switzerland). Then, test compounds were added, and the plate was incubated for 90 minutes at 37° C., followed by 60 minutes incubation with Anti-IP1-Cryptate and IP1-d2 at room temperature. Stimulated IP-1 formation was determined by Homogeneous Time-Resolved Fluorescence (HTRF) measurement on a BioTek Synergy H1 Multimode Reader (Agilent Technologies (Schweiz) AG, Basel, Switzerland) and EC50 values were derived from the concentration-response curves using nonlinear regression.

A word on the IC50: it is the concentration at which inhibition is half-maximal. On to `C#CC(Cc1ccc2c(c1)OCO2)NC` (stereo not shown) [DDH-MBDB, N-Methyl-1-(1,3-benzodioxol-5-yl)but-3-yn-2-amine hydrochloride], for which the IC50 in assay [1] was greater than 10000 nM.

The compound `C=CC(Cc1ccc2c(c1)OCO2)NC.Cl` (stereo not shown) [DH-MBDB, N-Methyl-1-(1,3-benzodioxol-5-yl) but-3-en-2-amine hydrochloride] registered an IC50 in assay [1] of 1000 to 10000 nM. The “5-HT2A receptor activation, result in words” value (“5-HT2A receptor activation” below) at human 5-HT2A receptor is listed as “weaker activation efficacy”.

On to `C#CC(N)Cc1ccc2c(c1)OCO2` (stereo not shown) [DDH-BDB, 1-(1,3-Benzodioxol-5-yl)but-3-yn-2-amine hydrochloride], for which the half-inhibitory concentration (IC50) in assay [1] was greater than 10000 nM.

Turning to `C=CC(N)Cc1ccc2c(c1)OCO2.Cl` (stereo not shown) [DH-BDB, 1-(1,3-Benzodioxol-5-yl) but-3-en-2-amine hydrochloride], the IC50 in assay [1] lay within 1000 to 10000 nM. Further, the “5-HT2A receptor activation” value on human 5-HT2A receptor is “weaker activation efficacy”.

Turning to `C=CC(N)Cc1cc(OC)c(Br)cc1OC.Cl` (stereo not shown) [DH-4C-B, 1-(4-Bromo-2,5-dimethoxyphenyl)but-3-en-2-amine hydrochloride], in assay [1], the IC50 was greater than 10000 nM. Further, the “5-HT2A receptor activation” value on human 5-HT2A receptor (hydrochloride) was “fully activated; also recorded: potent activity”. Moreover, the EC50 at human 5-HT2A receptor (setting [4]) and at human 5-HT2A receptor (setting [5]) was 22.1 nM throughout.

For the compound `C#CC(N)Cc1cc(OC)c(Br)cc1OC.Cl` (stereo not shown) [DDH-4C-B, 1-(4-Bromo-2,5-dimethoxyphenyl)but-3-yn-2-amine hydrochloride], the “5-HT2A receptor activation” value at human 5-HT2A receptor was “fully activated”. Besides, the EC50 at human 5-HT2A receptor (setting [4]) and at human 5-HT2A receptor (setting [5]) was 40.7 nM each time. Regarding `C=C(c1ccc2c(c1)OCO2)C(C)NC.Cl` (stereo not shown) [BME-MDMA, 2-(1,3-Benzodioxol-5-yl)-3-(methylamino) butene hydrochloride], the “5-HT2A receptor activation” value on human 5-HT2A receptor was “weaker activation efficacy”. As for `CCC(N)Cc1cc(OC)c(Br)cc1OC` (stereo not shown) [4C-B], the “active dose range (mixed psychedelic-energizing)” value in assay [2] is 50 to 80 mg. Consider “1-(Indol-3-yl) but-3-en-2-amine hemifumarate [DH-α-ET]”, for which the concentration for half-maximal inhibition (IC50) in assay [1] (read-out: IC50, inhibition of 5-HT uptake (SERT)) is less than 1000 nM. The “IC50, inhibition of 5-HT uptake (SERT)” value in assay [1] is reported as “sub-micromolar”. Moreover, the “efficacy at the 5-HT2A receptor, percentage of the maximal 5-HT response” value at human 5-HT2A receptor (at 10 μM) is listed as roughly 50%. In the case of `CNC(C)Cc1ccc2c(c1)OCO2` (stereo not shown) [MDMA, 3,4-Methylenedioxymethamphetamine], the IC50 in assay [3] is roughly 1400 nM.
